For orientation: IC50 means the concentration that gives 50% inhibition. A low value points to inhibition by little substance.

The source of these data is ChEMBL document CHEMBL4229541, “Vinca alkaloids and analogues as anti-cancer agents: Looking back, peering ahead” (Bioorg Med Chem Lett, 2018).

Where only a bound is given, the exact number is not on record here.

What all share (type): functional, cell-based
One assay has as its system L1210. Nature of the assay: Growth inhibition of mouse L1210 cells.
In another assay the test system is HCT-116. Nature of the assay: Growth inhibition of human HCT116 cells.
The next assay deals with HCT-116/VM46. Nature of the assay: Growth inhibition of human HCT116/VM46 cells.

In the case of `CC[C@]1(O)C[C@@H]2CN(CCc3c([nH]c4ccccc34)[C@@](C(=O)OC)(c3cc4c(cc3OC)N(C)[C@H]3[C@]5(O)C(=O)N(C)CCC5[C@]5(CC)CCCN6CC[C@]43C65)C2)C1` (some centres undefined), the results for the IC50 with L1210, in the assay on HCT-116 and in the assay with HCT-116/VM46 were 8400 nM, 7900 nM and above 10 µM, respectively.

`CC[C@]1(SC#N)C[C@@H]2CN(CCc3c([nH]c4ccccc34)[C@@](C(=O)OC)(c3cc4c(cc3OC)N(C)[C@H]3[C@@](O)(C(=O)OC)[C@H](OC(C)=O)[C@]5(CC)C=CCN6CC[C@]43[C@@H]65)C2)C1`: the figures for the concentration for half-maximal inhibition (IC50) in the assay on L1210, in the assay with HCT-116 and in the assay with HCT-116/VM46 were 560 nM, 550 nM and 2.9 µM, respectively.

Turning to `CC[C@]1(O)C[C@@H]2CN(CCc3c([nH]c4ccccc34)[C@@](C(=O)OC)(c3cc4c(cc3OC)N(C)[C@H]3[C@@](O)(C(=O)OC)[C@H](OC(C)=O)[C@]5(CC)C[C@@H](Cl)CN6CC[C@]43[C@@H]65)C2)C1`, the IC50 with L1210 was 840 nM; with HCT-116 it was 710 nM; in the assay on HCT-116/VM46, 8.6 µM.

As for `CC[C@]1(O)C[C@@H]2CN(CCc3c([nH]c4ccccc34)[C@@](C(=O)OC)(c3cc4c(cc3OC)N(C)[C@H]3[C@]5(O)C(=O)N(C)CCC5[C@@H]5CCCN6CC[C@]43C56)C2)C1` (some centres undefined), the IC50 with L1210 is 570 nM; with HCT-116, 520 nM; with HCT-116/VM46 it was 6.6 µM.

Turning to `CC[C@]1(O)C[C@@H]2CN(CCc3c([nH]c4ccccc34)[C@@](C(=O)OC)(c3cc4c(cc3OC)N(C)[C@H]3[C@@](O)(C(=O)OC)[C@H](C(=O)OC)[C@]5(CC)C=CCN6CC[C@]43[C@@H]65)C2)C1`, the half-maximal inhibitory concentration (IC50) is 8.1 nM with L1210 and 6.1 nM with HCT-116.

Consider `CC[C@]1(O)C[C@@H]2CN(CCc3c([nH]c4ccccc34)[C@@](C(=O)OC)(c3cc4c(cc3OC)N(C)[C@H]3[C@@](O)(C(=O)OC)[C@H](OC(C)=O)[C@]5(CC)C[C@H](O)CN6CC[C@]43[C@@H]65)C2)C1`, for which the IC50 is 610 nM with L1210, 630 nM in the assay with HCT-116 and above 10 µM in the assay with HCT-116/VM46.

With `CC[C@]1(O)C[C@@H]2CN(CCc3c([nH]c4ccccc34)[C@@](C(=O)OC)(c3cc4c(cc3OC)N(C)[C@@H]3[C@]45CCN4CC=C[C@@](CC)(C[C@]3(O)C(=O)OC)[C@H]45)C2)C1`, the IC50 in the assay with L1210 came out at 58000 nM; with HCT-116, 60000 nM; in the assay on HCT-116/VM46, 660 µM.

In the case of `CC[C@]1(O)C[C@@H]2CN(CCc3c([nH]c4ccccc34)[C@@](C(=O)OC)(c3cc4c(cc3OC)N(C)[C@H]3[C@@](O)(C(=O)OC)[C@H](OC(C)=O)[C@]5(CC)C[C@@H](O)CN6CC[C@]43[C@@H]65)C2)C1`, the results for the IC50 in the assay with L1210, in the assay on HCT-116 and in the assay with HCT-116/VM46 were 7600 nM, 7700 nM and above 10 µM, respectively.

`CC[C@]1(O)C[C@@H]2CN(CCc3c([nH]c4ccccc34)[C@@](C(=O)OC)(c3cc4c(cc3OC)N(C)[C@H]3[C@@](O)(C(=O)OC)[C@H](OC(C)=O)[C@]5(CC)C=CCN6CC[C@]43[C@@H]65)C2)C1` [VINBLASTINE] displayed an IC50 in the assay with HCT-116/VM46 of 0.6 µM.

As to `CC[C@]1(O)C[C@@H]2CN(CCc3c([nH]c4ccccc34)[C@@](C(=O)OC)(c3cc4c(cc3OC)N(C)[C@@H]3[C@]45CCN4CC=C[C@@](C)(C[C@]3(O)C(=O)OC)[C@H]45)C2)C1`, the results for the IC50 in the assay on L1210, in the assay with HCT-116 and in the assay with HCT-116/VM46 were 550 nM, 560 nM and 5.3 µM, respectively.

`CC[C@]1(N=C=S)C[C@@H]2CN(CCc3c([nH]c4ccccc34)[C@@](C(=O)OC)(c3cc4c(cc3OC)N(C)[C@H]3[C@@](O)(C(=O)OC)[C@H](OC(C)=O)[C@]5(CC)C=CCN6CC[C@]43[C@@H]65)C2)C1`: the figures for the IC50 in the assay with L1210, with HCT-116 and with HCT-116/VM46 were 590 nM, 530 nM and 7 µM, respectively.

As to `CC[C@]1(N=[N+]=[N-])C[C@@H]2CN(CCc3c([nH]c4ccccc34)[C@@](C(=O)OC)(c3cc4c(cc3OC)N(C)[C@H]3[C@@](O)(C(=O)OC)[C@H](OC(C)=O)[C@]5(CC)C=CCN6CC[C@]43[C@@H]65)C2)C1`, the IC50 in the assay with L1210 turned out to be 670 nM; with HCT-116 it was 690 nM; with HCT-116/VM46 it was 5.5 µM.

`CC[C@]1(N)C[C@@H]2CN(CCc3c([nH]c4ccccc34)[C@@](C(=O)OC)(c3cc4c(cc3OC)N(C)[C@H]3[C@@](O)(C(=O)OC)[C@H](OC(C)=O)[C@]5(CC)C=CCN6CC[C@]43[C@@H]65)C2)C1`: the IC50 in the assay with L1210 is 640 nM; with HCT-116 it was 600 nM; in the assay with HCT-116/VM46, above 10 µM.

Turning to `CC[C@]1(O)C[C@@H]2CN(CCc3c([nH]c4ccccc34)[C@@](C(=O)OC)(c3cc4c(cc3OC)N(C)[C@@H]3[C@]45CCN4CC=C[C@@H](C[C@]3(O)C(=O)OC)[C@H]45)C2)C1`, the IC50 was found to be 610 nM with L1210, 400 nM in the assay on HCT-116 and 3.5 µM in the assay on HCT-116/VM46.
